For data set [1], the system named is Human-derived uterus cancer cell line HeLa-luc. In words: Schedule study of combined use of compound I and paclitaxel in HeLa-luc grafted nude rats. The data set is classed as in vivo. Particulars: group 1: paclitaxel 10 mg/kg i.v. on day 1 alone; 5 rats. The source says: Human-derived uterus cancer cell line HeLa-luc (PerkinElmer, Inc.) cells transfected with luciferase gene were subcutaneously grafted at 1×10^7 cells to the right abdomens of nude rats (lineage: F344/NJcl-rnu/rnu, female, distributor: CLEA Japan, Inc.). When the volume of the grafted tumor reached approximately 200 mm^3, the rats were divided into groups each consisting of 5 rats according to stratified randomization such that each group had almost the same tumor volume.
To group 1, paclitaxel (10 mg/kg) alone was intravenously administered on day 1. To groups 2 to 5, paclitaxel was administered and, on the next day, the hydrochloride of the compound I (30 mg/kg, based on free form) obtained in Reference Example 1 was orally administered twice per day for 1 day, 2 days, 3 days or 4 days (Sequential treatment; see FIG. 1). […]
The presence or absence of a therapeutic effect was determined by measuring the major axis and minor axis of tumor with time and calculating a tumor volume (TV), relative tumor volume (RTV) and T/C (%) value (average relative tumor volume ratio of the treatment group to the control group) on day 10 after initiation of administration, according to the following formulas. […]

The target of another data set is T1, Aurora A (Homo sapiens, UniProt O14965).
T1 sequence (O14965 1-403): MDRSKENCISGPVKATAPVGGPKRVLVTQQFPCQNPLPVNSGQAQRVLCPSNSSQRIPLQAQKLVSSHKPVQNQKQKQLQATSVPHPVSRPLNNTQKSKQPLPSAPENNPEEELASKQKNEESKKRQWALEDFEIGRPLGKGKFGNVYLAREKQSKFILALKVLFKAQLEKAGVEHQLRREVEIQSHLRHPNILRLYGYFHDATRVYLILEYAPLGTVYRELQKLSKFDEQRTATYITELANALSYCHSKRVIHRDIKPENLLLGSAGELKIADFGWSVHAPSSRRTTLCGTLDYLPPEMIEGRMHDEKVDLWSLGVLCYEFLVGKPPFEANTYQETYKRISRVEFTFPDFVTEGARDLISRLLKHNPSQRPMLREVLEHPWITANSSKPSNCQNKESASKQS
As to conditions: cited from earlier work.

Data set [2] in a line: Phase 1 clinical dose escalation trial with paclitaxel: safety, dose-limiting toxicity. The data set is classed as in vivo, human. How it is done: (§1) Paclitaxel and compound I in the form of hydrochloride were administered to cancer patients and evaluated for safety and efficacy. This study was conducted targeting solid cancer patients for whom a standard treatment is not effective, or a treatment is not present. Cancers found to affect the patients included the carcinoma shown in FIG. 3 (urothelial cancer, adrenal cancer, pancreatic cancer, colon cancer, cervical cancer, bile duct cancer, hepatocellular carcinoma, prostate cancer, head and neck cancer, ovarian cancer, gallbladder cancer, non-small cell lung cancer, parotid gland cancer, breast cancer, and fallopian tube cancer). This study also corresponds to a phase 1 clinical dose escalation trial for mainly evaluating safety and determining a recommended dose (RD), that can be administered safely without a concerned side effect in a phase 1 clinical expansion cohort test to be performed on a carcinoma basis.
(§2) A weekly administration regimen was adopted to paclitaxel, in which paclitaxel was administered once per week for 3 weeks, followed by cessation of the drug for 1 week. This administration method is a standard paclitaxel administration regimen and is widely used in clinical practice. On the other hand, the compound I was administered twice per day for 2 or 3 or 4 days from the same day as paclitaxel administration or 1 day after paclitaxel administration; this regimen was performed for 3 weeks together with the weekly paclitaxel administration; and week 4 was set to cessation of the compound I, in accordance with the cessation of paclitaxel. Each administration schedule (dose level) was evaluated from results of administration to 2 to 7 patients.

The conditions of data set [3]: in vivo; cited from earlier work.
For another data set, the system named is solid cancer. The data set is described as follows: Phase 1 clinical dose escalation trial with paclitaxel: tumor reduction effect (RECIST). Particulars: for cases in which a tumor reduction effect was observed: equal dose per day. The data set is classed as in vivo, human. How it is done: as §1
In addition to the evaluation of safety, a therapeutic effect on tumor was also evaluated, if possible. The therapeutic effect on tumor was determined as a tumor reduction effect by comprehensive evaluation of target lesions (lesions equal to or larger than a measurable size according to a slice width by CT, etc.) and non-target lesions (all lesions other than the target lesions) with reference to the RECIST evaluation method (Journal of the National Cancer Institute, 2000, Vol 92, No. 3, 205-216J). The dose of the compound I is a weight based on free form.
In this study, PR (partial response) refers to 30% or more decrease in the sum of the major axis of target lesions, compared to that before administration. PD (progressive disease) refers to 20% or more relative increase in the sum of the major axis of target lesions, compared to the smallest sum of the major axis recorded after the start of the study, 5 mm or more absolute increase in the sum of the major axis, or apparent exacerbation of existing non-target lesions or a new lesion. SD (stable disease) refers to insufficient tumor reduction to qualify for PR and insufficient increase to qualify for PD, without progression and exacerbation of tumor, compared to the smallest sum of the major axis recorded after the start of the study.
as §2

The subject of another data set is tumor. As to conditions: rats, 24 hours later MK-5108 orally twice per day for 2 days; cited from earlier work.
The subject of data set [4] is small-cell lung cancer (SCLC). Particulars: paclitaxel once per week; MLN8237 twice per day for 3 days, 4 days off; cited from earlier work.

Molecules are shown by their SMILES.

Consider `CC(=O)O[C@H]1C(=O)[C@@]2(C)[C@H]([C@H](OC(=O)c3ccccc3)[C@]3(O)C[C@H](OC(=O)[C@H](O)[C@@H](NC(=O)c4ccccc4)c4ccccc4)C(C)=C1C3(C)C)[C@]1(OC(C)=O)CO[C@@H]1C[C@@H]2O` [paclitaxel], for which the “number of CR (complete remission) cases” value in data set [1] is “no CR cases were observed”.
Consider `Cc1cc(Nc2nc(CC3(C(=O)O)CCN(C(=O)c4cccc(Cl)c4Cl)CC3)ccc2F)n[nH]1` [compound I, 1-(2,3-dichlorobenzoyl)-4-[5-fluoro-6-(5-methyl-1H-pyrazol-3-ylamino)pyridin-2-yl]methyl-4-piperidinecarboxylic acid], for which the “Aurora A selective inhibitory activity” value on Aurora A was “excellent”. Also, the “patients with dose-limiting toxicity (DLT)” value is recorded as “two out of three” in data set [2] (DL1: paclitaxel 90 mg/m^2/day weekly, compound I 25 mg/dose twice per day for 4 days from same day as paclitaxel, 3 weeks); “not observed in any of three cases” in data set [2] (DL2: paclitaxel 70 mg/m^2/day, compound I for 2 days from 1 day after paclitaxel); “two out of three” in data set [2] (DL7: paclitaxel 80 mg/m^2/day, compound I 100 mg per dose twice per day for 3 days from day following paclitaxel). Further, the “tolerability determination of the dose level” value in data set [2] (DL1: paclitaxel 90 mg/m^2/day, compound I 25 mg/dose twice per day for 4 days) is recorded as “exceed the maximum tolerable dose”; in data set [2] (DL2: paclitaxel 70 mg/m^2/day, compound I for 2 days), “tolerable”; in data set [2] (DL6: paclitaxel 80 mg/m^2/day, compound I 75 mg per dose twice per day for 3 days), “most suitable as the maximally tolerated dose”; in data set [2] (DL7: paclitaxel 80 mg/m^2/day, compound I 100 mg per dose twice per day for 3 days) it was “exceed the maximum tolerable dose”. Moreover, the “patients with grade 3 or higher dose-limiting toxicity” value in data set [2] (DL6: paclitaxel 80 mg/m^2/day, compound I 75 mg per dose twice per day for 3 days from day following paclitaxel) was “not observed in any of seven cases”. The tolerability entry in data set [2] (compound I 2 consecutive days, 75 mg per dose, total 300 mg per week, with paclitaxel) is “tolerable without the dose-limiting toxicity”. Further, the oral absorbability entry in data set [3] is “excellent in oral absorbability”. For the same compound, the “patients in which a tumor reduction effect was observed” value turned out to be 50% in the data set with solid cancer (2 on 5 off schedule, 6 out of 12 patients, with paclitaxel) and 88% with solid cancer (3 on 4 off schedule, 7 out of 8 patients, with paclitaxel). Besides, the “cases that had PR” value in the data set with solid cancer (2 on 5 off schedule, one out of 12 cases, with paclitaxel) worked out at 8.3%. In addition, the “cases that manifested PR” value in the data set on solid cancer (3 on 4 off schedule (dose levels 6 and 7), 3 out of 8 cases, with paclitaxel) is 38%. Moreover, the “number of patients with PR (partial response)” value in the data set with solid cancer (all dose levels, 22 evaluable cases, combination with paclitaxel) came out at 5. The “cases in which a tumor reduction effect was observed” value with solid cancer (2 on 5 off (dose level 5), 1 out of 3 cases, with paclitaxel) was 33%; in the data set with solid cancer (3 on 4 off (dose level 6), 4 out of 5 cases, with paclitaxel), 80%.
For the compound `O=C(O)[C@]1(Cc2cccc(Nc3nccs3)n2)CC[C@@H](Oc2cccc(Cl)c2F)CC1` [MK-5108], in the data set on tumor, the “effect on side effect of docetaxel” value is recorded as “without exacerbating the side effect of docetaxel” and the “effect on tumor reduction effect of docetaxel” value was “tumor reduction effect of docetaxel is enhanced”.
On to `COc1cc(Nc2ncc3c(n2)-c2ccc(Cl)cc2C(c2c(F)cccc2OC)=NC3)ccc1C(=O)O` [alisertib], for which, in data set [4], the adverse events entry was “serious adverse events such as neutropenia was found” and the “efficacy in combination with paclitaxel” value is recorded as “effective for small-cell lung cancer”.

Values taken from US12036215B2, “Antitumor agent and method for tumor therapy” (TAIHO PHARMACEUTICAL CO., LTD., priority 2018, dated 2024).
